{"source": "patent US6998383B2", "about": "“Inhibitors of receptor activator of NF-κB and uses thereof” (Research Development Corporation, priority 2001, dated 2006)", "format_in_all_cases": "cell-based, mouse", "key": {"[1]": {"system": "RAW264.7 cells", "test": "RANKL-mediated osteoclast differentiation in RAW264.7 cells (TRAP staining)", "procedure": "RAW264.7 cells were plated in 12-well plates and stimulated with RANKL (30 ng/ml) for 4 days. Cells were stained for TRAP essentially as described below. Photographs were taken using a 10× objective lens.\nRAW cells were plated as described in FIG. 2A and treated with RANKL in the presence of 1, 30, or 100 μM of peptides as indicated. On day 4 cells were stained and evaluated as in FIG. 2A.\nRAW264.7 cells were plated in 48-well plates in triplicate and treated with RANKL in the presence of increasing amounts of the indicated peptides. After 4-5 days, the cells were stained for TRAP and the total numbers of osteoclasts were counted as described below.\nPrimary bone marrow monocytes (BM) or RAW264.7 cells were cultured in 48-well dishes at a density of 1×10^5 cells/well or 2×10^3 cells/well, and then treated with the indicated factors at the beginning of the culture and during a medium change on day 3. Osteoclast formation was assessed by counting the total number of multi-nucleated (>3 nuclei), TRAP-positive cells present per well between day 7 and 10 (BM) or on day 5 (RAW264.7) (30).\nThe mouse macrophage cell line RAW264.7 express the receptor activator of NF-κB on their cell surface and when stimulated with the receptor activator of NF-κB ligand differentiate into multi-nucleated, tartrate resistant acid phosphatase (TRAP) positive osteoclasts after 4-5 days (FIG. 2A). To determine whether L-T6DP-1 could inhibit RANKL-mediated osteoclast differentiation, RAW264.7 cells were co-cultured with increasing concentrations of either L-T6DP-1. or T6DP-1 and 30 ng/ml RANKL for 4 days."}, "[2]": {"system": "JNK", "test": "RANKL-mediated JNK activation in RAW264.7 cells (immune complex kinase assay, GST-Jun (1-79) substrate)", "conditions": "peptide 6 h, RANKL 10 nM 15 min (FIG. 5A)", "procedure": "RAW264.7 cells were plated in 6-well plates and treated with the indicated peptides for 6 h, then treated with RANKL (10 nM) for 15 mm. Whole cell extracts were prepared and 30 μg of cell lysate was immunoprecipitated with anti-JNK1. In vitro kinase assays were performed using GST-Jun (1-79) as the substrate as described below.\nLysates were prepared from RAW cells stimulated with RANKL as indicated in the legends to the figures. Approximately 30 μg was then used for immunoprecipitation with indicated antibodies and protein A/G Sepharose beads for 1 h. Beads were collected by centrifugation, washed three times in lysis buffer, and then washed two times in low-salt buffer. JNK activity was analyzed using exogenous GST-Jun (1-79) as a substrate as previously described (8). Kinase activity was quantitated using a PhosphoImager and Imagequant Software (Molecular Dynamics, Sunnyvale, Calif.).\n(§1) Stimulation of the receptor activator of NF-κB activates members of the MAPK family including JNK, ERK and p38 kinase. The ability of the TRAF6 binding peptides to inhibit the receptor activator of NF-κB ligand-induced JNK, ERK, and p38 kinase activation was examined in RAW264.7 cells. […] Similar to the results with JNK, only L-T6DP-1 was able to block ERK (FIG. 5B) and p38 kinase (FIG. 5C) activation induced by the receptor activator of NF-κB ligand in RAW264.7 cells."}, "[3]": {"system": "p38 kinase", "test": "RANKL-mediated p38 kinase activation in RAW264.7 cells (phospho-specific immunoblot)", "conditions": "peptide 6 h, RANKL 10 nM 15 min (FIG. 5C)", "procedure": "FIG. 5B and FIG. 5C show inhibition of RANKL-mediated ERK and p38 activation by L-T6DP-1. Whole cell extracts (30 μg) from FIG. 5A were separated by 10% SDS-PAGE and electroblotted onto a nitrocellulose membrane. The membranes were first immunoblotted with the indicated phospho-specific antibody and then stripped and re-probed with the indicated antibodies as described below.\nas §1"}, "[4]": {"system": "NF-κB", "test": "RANKL-induced NF-κB activation in RAW264.7 cells (gel mobility shift assay)", "conditions": "peptide pre-treatment 5 h, RANKL 10 nM 15 min (FIG. 4A)", "procedure": "RAW264.7 cells were plated in 6-well plates and treated with the indicated peptides for 5 h, then treated with RANKL (10 nM) for 15 mm. Nuclear and cytoplasmic extracts were prepared and a gel mobility shift assays was performed with 8 μg of nuclear extracts as described below.\nNuclear extracts were prepared from transfected cells essentially as described (34). Equivalent amounts of nuclear protein were used in an EMSA reaction with ^32P-labeled NF-κB oligonucleotide from HIV-LTR as described (34). NF-κB activation was quantitated using a PhosphoImager and Imagequant Software.\nA mutant form of the receptor activator of NF-κB which contains only the TRAF6 binding domain is sufficient to activate NF-κB (8), and a dominant negative TRAF6 inhibits RANK-mediated NF-κB activation in 293 cells (9). To investigate the effect of the TRAF6 binding peptides on RANKL-induced NF-κB activation, NF-κB activation was examined in RAW264.7 cells that activated NF-κB when stimulated with RANKL (37). RANKL-stimulated RAW264.7 cells activated NF-κB as indicated by a gel mobility shift assay (FIG. 4A)."}}}
{"substance": "L-T6DP-1: Kaposi fibroblast growth factor signal sequence hydrophobic domain attached to murine RANK peptide containing the known TRAF6 binding domain (AAVALLPAVLLALLAPRKIPTEDEYTDRPSQPST; PEPTIDE Peptide L-T6Bp-1)", "values": [{"measurement": "RANKL-mediated osteoclast differentiation", "setting": "[1]; 30 ng/ml RANKL, 4 days, 1, 30 or 100 μM peptide (FIG. 2B)", "value": "dose-dependent inhibition"}, {"measurement": "multi-nucleated osteoclasts", "setting": "[1]; RANKL, 100 μM peptide, cells still TRAP positive (FIG. 2B)", "value": "multi-nucleated osteoclast were not observed"}, {"measurement": "number of TRAP positive osteoclasts", "setting": "[1]; RANKL, increasing amounts of peptide, 4-5 days (FIG. 2C)", "value": "dose-dependent decrease"}, {"measurement": "RANKL-mediated JNK activation", "setting": "[2]", "value": "capable of inhibiting"}, {"measurement": "RANKL-induced p38 kinase activation", "setting": "[3]", "value": "able to block"}, {"measurement": "RANKL-induced NF-κB activation", "setting": "[4]", "value": "suppressed in a dose-dependent manner"}]}
